The values that follow come from US11986482B2, “Method of promoting antitumor or anti-cancer immunity” (City University of Hong Kong, priority 2021, dated 2024).

For experiment [1], the system named is PD-L1. Description: PD-L1 internalization assay (surface anti-PD-L1 antibody labelling, Rab5 colocalization) in HeLa cells. In kind it is cell-based. As to conditions: HeLa cells pretreated 3 h; Pitstop2 30 uM, Filipin III 5 mg/mL. Here is the method:
Without intending to be limited by theory, it is believed that the endosomal trafficking of PD-L1, a type I membrane protein, remains poorly studied thus far. In the fixed HeLa cells stained with anti-PD-L1 antibody, HeLa cells are plated on coverslips in 24-well plates and fixed after 24 h. Cells are then co-stained with antibodies against PD-L1 and Rab5, LAMP1, CD63, Rab27A, Rab11. […] Thus, inventors speculate that PD-L1 at the cell surface may be subjected to an active endosomal trafficking process. To monitor the PD-L1's endosomal trafficking process, inventors label the PD-L1 at the cell surface in the live cells with an anti-PD-L1 antibody on ice for 1 h. They then incubate the cells with the warm medium at 37° C. for the indicated times to initiate the internalization of the PD-L1 antibody complex, followed by the immunostaining of RAB5, EEA1, LAMP1, or RAB11. […] In addition, HeLa cells are pretreated with Fillilin III (5 mg/mL) or Pistop2 (30 uM) for 3 h, then stained with the anti-PD-L1 antibody on ice for 1 h. At the indicated times after being incubated with a warm medium at 37° C., the cells are fixed and stained with an anti-Rab5 antibody. […] Furthermore, Rab5-knockout HeLa cells are transfected with CD63-mcherry and stained with the anti-PD-L1 antibody on ice for 1 h. After being incubated for 1.5 h in a warm medium at 37° C., the cells are fixed and imaged.

Experiment [2] deals with PD-L1. Description: Plasma membrane PD-L1 level in 4T1 cells (flow cytometry). In kind it is cell-based, mouse. As to conditions: 4T1 cells, GW4869 10 μM with 6J1 1 μM. Here is the method:
(§1) The current PD-L1 and PD1 therapies apply PD-L1 or PD1 monoclonal antibodies to block the PD-L1/PD1 signaling, which results in cytotoxic T cells recognizing and killing the tumor cells. […] First, flow cytometry-based quantification of plasma membrane levels of PD-L1 in 4T1 cells treated with or without 6J1 (1 μM) for 24 h. 4T1 cells are treated with or without 6J1 (1 μM) for 24 h. The supernatant is collected, and the concentration of extracellular vesicle is determined using a Nanosight nanoparticle analyzer in FIG. 8b. The exosomes are also collected and subjected to western blot analysis of the EVs marker and PD-L1 in FIG. 8c.
Therefore, it is possible that the increased exosomal PD-L1 secretion induced by 6J1 may still suppress the tumor-infiltrating T cell cytotoxicity in vivo, even though 6J1 reduces the cell surface expression level of PD-L1 on the tumor cells. To evaluate the role of exosomal PD-L1 in the tumor microenvironment and tumor progression in mice, inventors knock out Rab27a in 4T1 cells to inhibit the secretion of exosomes. 4T1-shNC or 4T1-shRab27A cells are treated with or without 6J1 (1 μM). The supernatant is collected, and the concentration of extracellular vesicle is determined using a Nanosight nanoparticle analyzer. […] Inventors analyze the plasma membrane levels of PD-L1 in 4T1-shNC or 4T1-shRab27A cells treated with or without 6J1 (1 μM). […] Next, control or Rab27a-knockout 4T1 cells are orthotopically transplanted into syngeneic fat pads of female Balb/c. The mice are randomly divided (n=5 per group) and treated with either buffer or 6J1 (30 mg/kg, daily) via oral gavage. […] Inventors also perform the immunostaining of CD8 and Granzyme B in the tumor sections. […] Since enhanced antitumor immunity leads to increased apoptosis in tumors, inventors assess the levels of cleaved caspase3 (CCA3), one of the markers of apoptosis, in tumor sections as well.
Finally, inventors assess the combinatory effects of 6J1 with GW4869, an exosome secretion inhibitor, in the aforementioned orthotopic mammary carcinoma mouse models. […]
(In flow cytometry, cells or beads pass a laser one at a time.)

The next experiment concerns 4T1 cells. Description: Extracellular vesicle concentration, Nanosight nanoparticle analyzer, 4T1 cells. The format is cell-based, mouse. To be noted: 4T1 cells, GW4869 10 μM with 6J1 1 μM. On the procedure: as §1
To assess whether the in vivo antitumor growth effect of 6J1 is related to its effect on PD-L1 in 4T1 cells, inventors knock out PD-L1 via CRISPR/Cas9 in 4T1 cells (FIG. 10a). 4T1-NC or 4T1-PD-L1 knockout cells are treated with or without 6J1 (1 μM) for 24 h. The supernatant is collected, and the concentration of extracellular vesicle is determined using a Nanosight nanoparticle analyzer. The exosomes are also collected and subjected to western blot analysis of the EVs marker and PD-L1. […] Inventors then transplant control or PD-L1-knockout 4T1 cells into the fat pad of syngeneic female Balb/c mice. The mice are randomly divided (n=5 per group) and treated with either buffer or 6J1 (30 mg/kg, daily) via oral gavage.
Therefore, it is possible that the increased exosomal PD-L1 secretion induced by 6J1 may still suppress the tumor-infiltrating T cell cytotoxicity in vivo, even though 6J1 reduces the cell surface expression level of PD-L1 on the tumor cells. To evaluate the role of exosomal PD-L1 in the tumor microenvironment and tumor progression in mice, inventors knock out Rab27a in 4T1 cells to inhibit the secretion of exosomes. 4T1-shNC or 4T1-shRab27A cells are treated with or without 6J1 (1 μM). The supernatant is collected, and the concentration of extracellular vesicle is determined using a Nanosight nanoparticle analyzer. […] Inventors analyze the plasma membrane levels of PD-L1 in 4T1-shNC or 4T1-shRab27A cells treated with or without 6J1 (1 μM). […]

The subject of experiment [3] is PD-L1. Description: Western blot of PD-L1 in total cell lysates and exosomes of HeLa cells. To be noted: HeLa cells, 48 h, Bafilomycin A1 10 nM, Torin 1 100 nM; for exosomal PD-L1 level: ionomycin 1 μM, 6J1 1 μM. The format is cell-based. Here is the method:
PD-L1 has been previously shown to be secreted outside the cell through exosomes. HeLa cells are plated on coverslips in 24-well plates and stained with the anti-PD-L1 antibody on ice for 1 h. At the indicated times after being incubated at a warm medium at 37° C., cells are fixed and stained with antibodies against CD63 or Rab27a. […] Cells are treated with or without ionomycin (1 μM) for 48 h. The supernatant is collected and subjected to western blot analysis. […] Since the amphisome, which is formed by the fusion of the autophagosome with the MVB/late endosome, has been implicated in extracellular vesicles secretion, and PD-L1 is found to be associated with LC3B during PD-L1 trafficking (FIG. 2a), inventors examine whether the autophagosome formation is involved in exosomal PD-L1 secretion. Thus, inventors knock out the expression of Rab27A, LC3B or ATG4B in HeLa cells and collect their supernatant respectively for western blot analysis.
Furthermore, HeLa cells are treated with or without Bafilomycin A1 (10 nM), or Torin 1 (100 nM) for 48 h. The cell lysates and supernatant are collected for western blot analysis. […] In contrast, Torin1, an autophagy activator, has little effect on total and exosomal PD-L1 levels (FIG. 2g). […] On the other hand, blockage on the fusion between lysosomes and late endosomes or autophagosomes may induce PD-L1 secretion via exosomes.
It has previously been shown that interfering with endosomal trafficking promotes exosome secretion. Moreover, PD-L1 has been reported to be enriched in exosomes and secreted outside the cell. Thus, inventors speculate that 6J1 may induce the secretion of the PD-L1 trapped in the endosomal compartments via exosomes. To determine whether 6J1 may induce the secretion of PD-L1 via exosomes, HeLa cells are treated with or without 6J1 (1 μM) for 24 h. The supernatant is collected. Inventors purify the exosomes from the supernatant of HeLa cells by sequential centrifugation. The concentration of extracellular vesicle is determined using a Nanosight nanoparticle analyzer. And HeLa cells are treated with or without 6J1 (1 μM) for 48 h. The cell and supernatant are collected for Western Blot analysis. […] Moreover, the activity of Rab27a in HeLa cells treated with or without 6J1 (1 μM) is examined with a GST-SHD pulldown assay.
Moreover, ATG5- or LC3-knockout HeLa cells are treated with or without 6J1 (1 μM) for 24 h. The supernatant is collected, and the concentration of the extracellular vesicle is determined using a Nanosight nanoparticle analyzer. The exosomes are also collected and subjected to western blot analysis of the EVs marker and PD-L1 in FIG. 7a. The live cells are also labeled with an anti-PD-L1 antibody in FIG. 7b and subjected to flow cytometry analysis in FIG. 7c. […] In addition, inventors assess whether other autophagy-related genes, e.g., ATG4B, ATG7, Beclin1, and Vps34 are involved in 6J1-mediated exosomal PD-L1 secretion. ATG4B-, ATG7-, Beclin1-, or VPS34-knockout HeLa cells are treated with or without 6J1 (1 μM) for 24 h. The supernatant is collected, and the concentration of extracellular vesicle is determined using a Nanosight nanoparticle analyzer. The exosomes are also collected and subjected to western blot analysis of the EVs marker and PD-L1 in FIG. 7d. The live cells are also labeled with an anti-PD-L1 antibody and subjected to flow cytometry analysis in FIG. 7e.
(In general: In western blotting, separated proteins are transferred to a membrane and probed.)

Each structure is given as a SMILES string. “Also recorded” adds a separate entry of the source.

As for `CCCCC[C@@H](O)[C@H]1C(=O)O[C@H](C)[C@@H](O)/C=C/C=C/C=C/C=C/C=C(\C)[C@@H](O)C[C@H](O)C[C@H](O)C[C@H](O)C[C@H](O)C[C@H](O)C[C@@H]1O` [Filipin III], the “internalization of PD-L1” value in the experiment on PD-L1 [1] was “does not affect the internalization of PD-L1”.

As to `O=C(C=Cc1ccc(C=CC(=O)Nc2ccc(C3=NCCN3)cc2)cc1)Nc1ccc(C2=NCCN2)cc1` [GW4869, reference compound], the “effect of GW4869 on 6J1-mediated reduction of cell surface PD-L1” value with PD-L1 [2] is given as “does not impair 6J1-mediated reduction of cell surface PD-L1”. Further, in the experiment with 4T1 cells, the “effect of GW4869 on 6J1-induced exosome secretion” value was “inhibits exosome secretion of 4T1 cells induced by 6J1”.

Consider `O=C1NC(=NS(=O)(=O)c2cccc3ccccc23)S/C1=C\c1ccc(Br)cc1` [Pitstop2], for which, in the experiment with PD-L1 [1], the “internalization of PD-L1” value is reported as “blocks the internalization of PD-L1”.

Turning to `CCC(=O)N1CCN(c2ccc(-n3c(=O)ccc4cnc5ccc(-c6cnc7ccccc7c6)cc5c43)cc2C(F)(F)F)CC1` [Torin1], in the experiment with PD-L1 [3], the “total PD-L1 level in cells” value is given as “little effect” and the “exosomal PD-L1 level” value was “little effect”.

For `CO/C1=C\C(C)=C\[C@@H](C)[C@@H](O)[C@@H](C)C/C(C)=C/C=C/[C@H](OC)[C@@H]([C@@H](C)[C@@H](O)[C@H](C)[C@@]2(O)C[C@@H](O)[C@H](C)[C@@H](C(C)C)O2)OC1=O` [bafilomycin A1], in the experiment on PD-L1 [3], the “total PD-L1 level in cells” value is given as “markedly increases” and the “exosomal PD-L1 level” value is reported as “markedly increases”.

For the compound `C[C@H](CCC(=O)O)C[C@H](C)C[C@H](C)C(=O)/C=C(\O)[C@H](C)C[C@H](C)C/C=C/[C@@H](C)[C@@H](O)[C@@H](C)[C@@H](O)C[C@@H]1CC[C@@](C)([C@H]2CC[C@@](C)([C@@H](C)O)O2)O1` [ionomycin], the “exosomal PD-L1 level” value with PD-L1 [3] was “markedly increases the exosomal PD-L1 level; also recorded: markedly increased exosomal PD-L1 level”.
